Results taken from patent US9518089B2, “Metallothionein-derived peptide fragments” (University of Tasmania, priority 2006, dated 2016).

Tests used:
[1] = test system: focal brain injury on the right fronto-parietal cortex; test: Neuronal rescue and tissue repair in vivo after focal brain injury (dry-ice lesion); set-up: species or system rat; settings: rats, tetrameric form of peptide s.c. 10 mg/kg/injection, FIG. 11
Procedure: A focal brain injury on the right fronto-parietal cortex was made by applying a piece of dry-ice (−78° C.) directly onto the skull for 30 seconds in mice and 60 seconds in rats, as previously described in detail (Penkowa and Moos, 1995). The rats were treated s.c. with the tetrameric form of the MTAcc peptide ([…]) one day before lesion and one and two days after the lesion (10 mg/kg bodyweight/injection). Three days after the lesion animals were fixed by transcardial perfusion with paraformaldehyde. Histochemistry and immunohistochemistry (IHC) were performed on sections cut from organs taken from fixated animals. For immunohistochemical investigation, brains were dissected and postfixed in Zamboni's fixative for 2-3 hours, dehydraded in graded alcohol followed by xylol and subsequently embedded in paraffin before being cut in 3 μm frontal sections throughout the entire area of the lesion. Terminal deoxynucleotidyl transferase (TdT)-mediated deoxyuridine triphosphate (dUTP)-biotin nick end labeling (TUNEL) was performed using the Fragment End Labeling (FragEL™) Detection Kit (Calbiochem, USA, code QIA33). The FragEL kit contains all the materials used below and each step was performed according to the manufacturer's recommendations. Sections were also immunostained for markers of oxidative stress such as peroxynitrite-induced nitration of tyrosine residues (NITT) and malondialdehyde (MDA) andfor markers of inflammation such as interleukin (IL)-1, IL-12 and tumor necrosis factor (TNF) α, as described by Penkowa et al. (2000).

[2] = test system: cerebellar granule neurons (CGN); test: Neuronal differentiation (neurite outgrowth) in primary CGN cultures; type: cell-based, rat; settings: CGN grown 24 h in presence of peptide; FIGS. 1-5
Procedure: Primary cultures of cerebellar granule neurons (CGN) from seven days old rats were plated at a density of 10,000 cells/cm^2 in eight-well permanox chamber slides and left to differentiate for 24 hours in the presence of various concentrations of peptide. Cells were fixated and immuno-stained for GAP-43 to visualise only neurons. CGN cultures were fixed in 4% paraformaldehyde followed by blocking with 1% BSA and then incubateded with polyclonal rabbit antibodies against rat GAP-43 (Chemicon, AH Diagnostics, Aarhus, Denmark) (1:1000 dilution with 1% BSA) followed by incubation with secondary Alexa Fluor® 488 goat anti-rabbit antibodies (Molecular Probes, Eugene, Oreg., USA) (1:700 dilution with 1% BSA. Neurite length was estimated by means of a stereological approach (Rønn et al., 2000). Results are expressed as percentage neurite outgrowth±SEM, with the untreated controls set at 100%. Statistics are performed with a Student's paired t-test. *=p<0.05, **=p<0.01, ***=p<0.001. If not specifically indicated, four experiments were performed for each condition. 2.

[3] = test system: cerebellar granule neurons (CGN); test: Cell survival assay, low-potassium induced apoptosis of CGN; type: cell-based, rat; settings: apoptosis induced by 5 mM KCl medium, 48 h; FIGS. 6-9
Procedure: Primary CGN cultures from seven days old rats were plated at a density of 100,000 cells/cm^2 in eight-well permanox chamber slides coated with poly-D-Lysine and grown in a medium supplemented with 40 mM KCl. After 24 hours cytosine-β-D-arabinofuranoside was added to the culture to inhibit proliferation of non-neuronal cells. Neurons were left to differentiate for further 6 days in vitro, before apoptosis was induced by shifting cells into a starving medium containing either 5 mM KCl alone (negative control), 40 mM KCl (positive control) or 5 mM KCl plus various concentrations of peptide. 48 hours after apoptosis induction cells were fixated and stained with Hoechst 33258. Neuronal viability was estimated by comparing the amount of live neurons with the total number of neurons based on nuclear morphology. Results (see FIGS. 6-9) from at least four independent experiments are expressed as percentage survival±SEM, with the negative control set at 100%. Statistics are performed with a Student's paired t-test. *=p<0.05, **=p<0.01, ***=p<0.001. CGN from 7-day-old rats were induced to differentiate for 7 days in a medium with a high potassium concentration after which the neurons were grown for two days in a low potassium medium either in the absence or presence of IGF-1 (positive control), or the MT-derived peptides.

MT2 protein (from Sigma) = test: Surface plasmon resonance (SPR) analysis of peptide binding to immobilized MT2; settings: for Kd / ka / kd: 25° C., PBS pH 7.4, immobilized MT2; for binding to MT2 protein immobilized on a sensor chip: difference to blank chip
Procedure: FIG. 12 Binding of the MTAcc peptide to MT studied by means of SPR analysis. Approximately 2000 resonance units (RU) of the MT2 protein (Sigma) were immobilized on the sensor chip. The binding is given as the response difference between the binding to the sensor chip with the immobilized MT2 and a blank sensor chip (unspecific binding). The peptide was injected into the sensor chip at a concentration of 0.87 μM. The experiment was repeated four times. FIG. 13 Binding of the MTBcc peptide to MT studied by means of SPR analysis. Approximately 2000 resonance units (RU) of the MT2 protein (Sigma) were immobilized on the sensor chip. The binding is given as the response difference between the binding to the sensor chip with the immobilized MT2 and a blank sensor chip (unspecific binding). The peptide was injected into the sensor chip at a concentration of 8.32 μM. The experiment was repeated four times. FIG. 14 Binding of the MTAn peptide to MT studied by means of SPR analysis. Approximately 2000 resonance units (RU) of the MT2 protein (Sigma) were immobilized on the sensor chip. The binding is given as the response difference between the binding to the sensor chip with the immobilized MT2 and a blank sensor chip (unspecific binding). The peptide was injected into the sensor chip at a concentration of 1.7 μM. Analysis of binding was performed employing a BIAcoreX instrument (Biosensor AB, Uppsala, Sweden) at 25° C. using 10 mM pH 7.4 sodium phosphate containing 150 mM NaCl as running buffer (phosphate-buffered saline, PBS). The flow-rate was 5 μl/min. Data were analysed by non-linear curve-fitting using the manufacturer's software. The MT2 protein (from Sigma) was immobilized on a sensor chip CM5 using an amine coupling kit (Biosensor AB) as follows: the chip was activated by 20 μl activation solution; the protein was immobilized using 12 μl 20 μg/ml protein in 10 mM sodium phosphate buffer pH 6.0; the chip was blocked by 35 μl blocking solution. Various peptides at the indicated concentrations were injected into the sensor chip. The curve corresponding to the difference between binding to MT2 and a blank chip was used for analysis.

[4] = test system: cerebellar granule neurons (CGN); test: TUNEL assay (DNA fragmentation) in CGN; type: cell-based, rat; settings: 24 h after apoptosis induction; FIG. 10
Procedure: Primary cultures of seven days old rats were plated, cultured and induced to under-go apoptosis as described above for neuronal survival, however cells were fixated 24 hour after apoptosis induction. By using the Fluorescien FragEL DNA fragmentation Kit, which label free DNA ends with a green fluorescent colour, the amount of neurons undergoing DNA fragmentation can be estimated and compared to the total amount of cells, which are stained with propidium idodide. Results (see FIG. 10) from at least four independent experiments are expressed as percentage TUNEL positive cells±SEM, with the negative control set at 100%. Statistics are performed with a Student's paired t-test. *=p<0.05, **=p<0.01, ***=p<0.001.

Substance	neurite outgrowth / differentiation of cerebellar primary neurons [2]	neuronal survival of CGN [3]	ka (MT2 protein (from Sigma))	kd (MT2 protein (from Sigma))	binding to MT2 protein immobilized on a sensor chip (MT2 protein (from Sigma))	further results
AQGSICKGASDKSS [MTAcc, tetrameric form used in vivo]	stimulated differentiation of cerebellar primary neurons	promoted survival of CGN in a dose dependent manner	4.54 ± 0.21 × 10^3 M^−1 s^−1	4.00 ± 0.27 × 10^−4 s^−1	specifically bind	number of apoptotic cells (TUNEL staining) ([1]; day -1, +1, +2, analysed 3 days after lesion): dramatic decrease of the number of apoptotic cell; inflammatory response to the lesion (IL-1, IL-12 and TNFα immunostaining) ([1]; 3 days after lesion): inhibition of the inflammatory response to the lesion; oxidative stress (NITT and MDA immunostaining) ([1]; 3 days after lesion): inhibition of oxidative stress; Kd (MT2 protein (from Sigma)): 89.5 nM; number of apoptotic neurons (TUNEL positive cells, DNA fragmentation) [4]: strongly reduced the number of apoptotic neurons
AQGSISKGASDKSS (listed as Homo sapiens) [MTAc]	stimulated differentiation of cerebellar primary neurons	promoted survival of CGN in a dose dependent manner				
IGF-1: positive control in the CGN survival assay [reference compound]		could be prevented				
KGGEAAEAEAEK (listed as Homo sapiens) [MT31p]	no neuritogenic activity	promoted survival of CGN in a dose dependent manner				
KKSSCSCSPVGSAK [MTAn]			1.57 ± 0.05 × 10^4 M^−1 s^−1	5.74 ± 0.19 × 10^−3 s^−1	specifically bind	Kd (MT2 protein (from Sigma)): 367 nM
MDPNCSCAAGDSST (listed as Homo sapiens) [MTBnc]	stimulated differentiation of cerebellar primary neurons	promoted survival of CGN in a dose dependent manner				
MDPNSSSAAGDSST (listed as Homo sapiens) [MTBn]	no neuritogenic activity	promoted survival of CGN in a dose dependent manner				
SAGSCKCKESKSTS [MTBcc]	stimulated differentiation of cerebellar primary neurons	promoted survival of CGN in a dose dependent manner	2.83 ± 0.93 × 10^3 M^−1 s^−1	5.01 ± 1.75 × 10^−4 s^−1	specifically bind	number of apoptotic neurons (TUNEL positive cells, DNA fragmentation) [4]: strongly reduced the number of apoptotic neurons
SAGSSKSKESKSTS (listed as Homo sapiens) [MTBc]	stimulated differentiation of cerebellar primary neurons	promoted survival of CGN in a dose dependent manner				
